Data from article PMC12307812 (Nature Communications, 2025).

target: T1, Recombinant Human TMPRSS2 (Homo sapiens, UniProt O15393); assay: TMPRSS2 biochemical assay (Boc-Gln-Ala-Arg-AMC fluorogenic substrate); conditions: first round of screening on the NCATS in-house library (docking score selection); read-out: IC50
T1 construct: human TMPRSS2 residues 106492, N-terminal 6x His-tag; 6x His-tag (N); purchased Cusabio CSB-YP023924HU; host or cells: yeast
Experimental: Inhibitors of TMPRSS2 were tested using a high throughput activity assay. […] TMPRSS2 (5 µl, 0.018 mg/ml) in assay buffer (50 mM Tris pH 8, 150 mM NaCl, 0.01% Tween20) was dispensed to that, using a BioRAPTR (Beckman Coulter), for a total assay volume of 5 µl.
After incubation at room temperature for 1 h, fluorescence was measured. […] Raw plate reads for each titration point were normalized relative to a positive control containing no enzyme (0% activity, full inhibition) and a negative control containing DMSO-only wells (100% activity, basal activity). Data normalization was performed using GraphPad Prism (GraphPad Software, San Diego, CA).
We employed the curve fitting algorithm available in the SciPy package (version 1.10.1)[61] to derive the Hill slope and the IC50 value, along with their corresponding error estimates.

T1 sequence (O15393 106-492 limits assumed): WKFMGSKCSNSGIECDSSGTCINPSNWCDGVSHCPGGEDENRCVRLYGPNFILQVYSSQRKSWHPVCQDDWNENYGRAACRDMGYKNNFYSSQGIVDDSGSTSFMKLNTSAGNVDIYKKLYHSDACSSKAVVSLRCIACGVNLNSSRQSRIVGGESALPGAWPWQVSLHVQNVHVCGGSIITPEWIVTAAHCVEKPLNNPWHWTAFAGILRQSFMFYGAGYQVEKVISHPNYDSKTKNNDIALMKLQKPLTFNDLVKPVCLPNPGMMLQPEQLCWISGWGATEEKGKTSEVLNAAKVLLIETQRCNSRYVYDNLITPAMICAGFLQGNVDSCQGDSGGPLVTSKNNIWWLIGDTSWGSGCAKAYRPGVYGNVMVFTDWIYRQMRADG

`CC(C)c1ccc2oc(-c3ccc(NC(=O)c4cc5ccccc5o4)cc3)nc2c1` [NCGC00099237-01] and `COC(=O)c1ccc(Nc2nc(-c3ccc(C)cc3)nc3ccccc23)cc1` [NCGC00099825-01] are within 1.5-fold of each other in IC50: 22.4 µM for the first, 17.8 µM for the second.

Going from `COc1ccc(-c2cc(C(=O)Oc3ccc(C)c(C)c3)c3ccccc3n2)cc1` [NCGC00099485-01] to `CCOC(=O)c1c(-c2ccc(OC)cc2)oc2ccc(OCc3ccc(F)cc3F)cc12` [NCGC00099773-01], the IC50 rises from 15.8 µM to 31.6 µM (2-fold).

`CCCCC(=O)Oc1ccc2oc(-c3ccc(OC)cc3)cc(=O)c2c1` [NCGC00100604-01] and `COC(=O)Cc1c(C)c2ccc3c(c2oc1=O)CN(Cc1ccc(C)cc1)CO3` [NCGC00116348-01] are within 1.5-fold of each other in IC50: 12.6 µM for the first, 15.8 µM for the second.

Compared with `COC(=O)c1ccccc1NC(=O)CCCS(=O)(=O)c1nc(-c2ccccc2OC)cc(C(F)(F)F)n1` [NCGC00103995-01], `O=C(OCC(O)CO)c1ccccc1Nc1ccnc2c(C(F)(F)F)cccc12` (stereo not shown) [NCGC00249912-01] is 2.2-fold higher in IC50: 14.1 µM for the first, 31.6 µM for the second. The first is the more potent here.

Going from `COC(=O)c1ccc(OC)c(Cn2c(=O)n(-c3cccc(Cl)c3)c(=O)c3c2c2cc(C)ccc2n3C)c1` [NCGC00104930-01] to `CC(=O)Nc1cccc(-c2cc3c(ccn3C)c(C(=O)NCc3c(C)cc(C)[nH]c3=O)n2)c1` [NCGC00411690-01], the IC50 falls from 31.6 µM to 17.8 µM (1.8-fold).

First: CCOc1ccc(-n2nc(CO)c(C(=O)NCC(c3ccccc3)c3ccccc3)n2)cc1 [NCGC00117127-01]
Second: O=C(NCc1ccc(-c2cnc3c(Oc4ccccc4)nccn23)cc1)c1ccn[nH]1 [NCGC00413991-01]
The IC50 of the first is 1.6-fold lower: 22.4 µM for the first, 35.5 µM for the second.

Going from `CCOC(=O)c1cccc(Nc2ccc3cc(S(=O)(=O)N4CCCCC4)ccc3n2)c1` [NCGC00127764-01] to `CC(=O)Nc1cccc(-c2nc(-c3c(C)noc3C)cc3c2cc(-c2ccccc2)n3C)c1` [NCGC00417192-01], the IC50 falls from 14.1 µM to 8.91 µM (1.6-fold). The second is the more potent here.

Going from `Cc1cccc(-n2ncc3c(Nc4ccc(Oc5ccc(Cl)cc5)cc4)ncnc32)c1` [NCGC00138820-01] to `Cn1ccc2c(C(=O)NCCc3cnc[nH]3)nc(-c3cnn(Cc4ccccc4)c3)cc21` [NCGC00411713-01], the IC50 rises from 12.6 µM to 35.5 µM (2.8-fold). The first is the more potent here.

Going from `OCCn1cc(-c2cnc3nnn(Cc4ccc5ncccc5c4)c3n2)cn1` [NCGC00263161-11] to `Cn1nnc(-c2ccc(-c3ccc(N4C[C@H](COP(=O)(O)O)OC4=O)cc3F)cn2)n1` [NCGC00482851-02], the IC50 rises from 19.9 µM to 35.5 µM (1.8-fold).

Going from `Cc1cc(C)c(CNC(=O)c2nc(-c3cccc(C(F)(F)F)c3)cc3[nH]ccc23)c(=O)[nH]1` [NCGC00411596-01] to `COC(=O)CNC(=O)c1nc(-c2cccc(C(F)(F)F)c2)c2ccccn12` [NCGC00476320-01], the IC50 rises from 8.91 µM to 15.8 µM (1.8-fold). The first is the more potent here.

Going from `Fc1cc(F)cc(Cc2nc3nccc(-c4cc5ccccc5o4)n3n2)c1` [NCGC00424555-01] to `Nc1n[nH]c(CNc2cc(-c3ccc(F)cc3)nc3ccnn23)n1` [NCGC00434595-01], the IC50 rises from 12.6 µM to 19.9 µM (1.6-fold). The first is the more potent here.

For `Cc1cc(C(=O)Nc2cc(Oc3ccc4nc(NC(=O)C5CC5)cn4n3)ccc2C)n(C)n1` [NCGC00485933-01], the IC50 was 31.6 µM.

same assay, conditions: hits from NCATS in-house library screening; read-out: IC50, TMPRSS2 biochemical assay

In the case of `CCOC(=O)CCN(C(=O)c1ccc2c(c1)nc(CNc1ccc(C(=N)N)cc1)n2C)c1ccccn1` [dabigatran ethyl ester], the IC50 is reported as 2.24 µM.

same assay, conditions: second round of screening on the NCATS in-house library (dynamic h-score selection); read-out: IC50

`Nc1nn(-c2ccccc2)nc1C(=O)OCc1ccccc1` [NCGC00102837-01] and `Nc1nn(-c2ccccc2)nc1C(=O)OCc1ccccc1Br` [NCGC00102940-01] are the same in IC50: 17.8 µM for the first, 17.8 µM for the second.

`COc1cccc(COC(=O)c2ccc(-c3nnn(Cc4ccccc4)n3)cc2)c1` [NCGC00102929-01] and `O=C(OCC1CCCO1)c1ccc2c(c1)N(Cc1ccc(F)cc1)C(=O)c1ccccc1S2(=O)=O` (stereo not shown) [NCGC00127812-01] are within 1.5-fold of each other in IC50: 17.8 µM for the first, 15.8 µM for the second.

First: Cc1ccc(C(=O)Oc2ccc(C(O)CNC(C)(C)C)cc2OC(=O)c2ccc(C)cc2)cc1 (stereo not shown) [NCGC00253593-01]
Second: CC(=O)Nc1ccc(CN2C(=O)OC3(CCN(C(=O)c4cccc(C#N)c4)CC3)C2(C)c2ccccc2)cc1 (stereo not shown) [NCGC00415676-01]
The IC50 of the first is 2.2-fold lower: 14.1 µM for the first, 31.6 µM for the second.

Compound `Cc1cc(-c2cc3c(nc2-c2ccccc2)nc(C(=O)NCCN(C)C)n3C)ccn1` [NCGC00417822-01] has an IC50 of 19.9 µM.

system: TMPRSS2; assay: not given; design: method as in earlier work; conditions: top 50 compounds by AUC, Figure 2 source data; cited from earlier work

Compared with `CC(C)N(CCC(C(N)=O)(c1ccccc1)c1ccccn1)C(C)C` (stereo not shown) [NCGC00015358-18], `CC(CCc1ccccc1)NC(C)C(O)c1ccc(O)cc1` (stereo not shown) [NCGC00015716-09] is lower in “max response (%)” value: -7.9771% for the first, -20.1145% for the second.

Going from `CC(=O)Oc1cc(C(C)C)c(OCCN(C)C)cc1C` [NCGC00015678-10] to `CCCCc1cc2ccccc2c(OCCN(C)C)n1` [NCGC00016618-04], the “max response (%)” value falls from -9.504% to -11.3359%.

Going from `CCCNCC(O)COc1ccccc1C(=O)CCc1ccccc1` (stereo not shown) [NCGC00015819-15] to `CCC(=O)c1ccc2c(c1)N(CCCN(C)C)c1ccccc1S2.Cl` [NCGC00015838-06], the “max response (%)” value falls from -5.725% to -16.7557%.

Compared with `O=c1c(O)c(-c2ccc(O)c(O)c2)oc2cc(O)cc(O)c12` [NCGC00015870-27], `O=C1N=C([O-])CN1/N=C/c1ccc(-c2ccc([N+](=O)[O-])cc2)o1.[Na+]` [NCGC00024622-05] is higher in “max response (%)” value: -35.5344% for the first, -21.3359% for the second.

First: Nc1nc2ccc(OC(F)(F)F)cc2s1 [NCGC00015882-15]
Second: CC(=O)Oc1cccc(O)c1 [NCGC00095054-05]
The “max response (%)” value of the first is lower: -16.2214% for the first, -8.588% for the second.

First: CN(C(=O)C(Cl)Cl)c1ccc(OC(=O)c2ccco2)cc1 [NCGC00016637-10]
Second: CC(C(=O)O)c1ccc(C(=O)c2cccs2)cc1 (stereo not shown) [NCGC00094916-06]
The “max response (%)” value of the first is lower: -56.9847% for the first, -15.5344% for the second.

Compared with `COc1ccc(CN2CCNCC2)c(OC)c1OC` [NCGC00016697-04], `COc1cc(N)c(Cl)cc1C(=O)NC1CCN(Cc2ccccc2)CC1` [NCGC00016951-05] is higher in “max response (%)” value: -13.9313% for the first, -0.1908% for the second.

Compared with `O=C(c1ccc(F)cc1)C1CCN(CCn2c(=O)[nH]c3ccccc3c2=O)CC1` [NCGC00021146-09], `N=C(N)c1ccc2cc(OC(=O)c3ccc(N=C(N)N)cc3)ccc2c1` [NCGC00160398-05] is lower in “max response (%)” value: -16.7557% for the first, -96.6794% for the second.

Going from `C[C@]12CCC(=O)C=C1CC[C@@H]1[C@@H]2[C@@H](O)C[C@@]2(C)[C@H]1CC[C@]2(O)C(=O)CO` [NCGC00022848-17] to `CC1(C)O[C@@H]2C[C@H]3[C@@H]4CCC5=CC(=O)C=C[C@]5(C)[C@@]4(F)[C@@H](O)C[C@]3(C)[C@]2(C(=O)CO)O1` [NCGC00023193-06], the “max response (%)” value falls from -0.7252% to -22.5573%.

Compared with `C=C1C(=O)O[C@@H]2[C@H]3O[C@]3(C)CC/C=C(/C)CC[C@@H]12` [NCGC00024683-23], `CC12CCC(CC1=O)C2(C)C` (stereo not shown) [NCGC00090730-03] is higher in “max response (%)” value: -10.5725% for the first, -1.87% for the second.

Compared with `CCOC(=O)c1ccc(OC(=O)CCCCCN=C(N)N)cc1.CS(=O)(=O)O` [NCGC00025297-04], `Cc1ccc(S(=O)(=O)NC(=O)NN2CC3CCCC3C2)cc1` (stereo not shown) [NCGC00095107-09] is higher in “max response (%)” value: -83.626% for the first, -9.733% for the second.

First: CCCCCCCCCCCCCCCC[n+]1ccccc1.[Br-] [NCGC00091023-06]
Second: Cc1cc(C)cc(OCC2CNC(=O)O2)c1 (stereo not shown) [NCGC00095116-05]
The “max response (%)” value of the first is lower: -21.1069% for the first, -5.458% for the second.

First: Nc1ncnc2nc[nH]c12 [NCGC00094856-05]
Second: CC(N)C12CC3CC(CC(C3)C1)C2.Cl (stereo not shown) [NCGC00159491-04]
The “max response (%)” value of the first is higher: -3.511% for the first, -13.9313% for the second.

In the case of `S=P(N1CC1)(N1CC1)N1CC1` [NCGC00095042-09], the “max response (%)” value is given as -29.4275%.
